Test results published in patent US12139492B2 (Endotarget Inc., priority 2021, dated 2024).
Like-named read-outs stand apart in the source and are kept apart here.

Experiments:
Mino cells = test: Antiproliferative effect, MTS cell viability assay, Mino cells; type: cell-based; conditions: Mino mantle cell lymphoma cells, read-out: IC50 (anti-proliferation) Mino cells
Procedure, shortened: (§1)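 Steps: seed B-cell lymphoma line; add compound at 0, 0.001, 0.01, 0.1, 1 or 10 μM; incubate 72 h; add MTS and read reduced tetrazolium (formazan) absorbance at 490 nm.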

BTK = BTK (Homo sapiens, UniProt Q06187); test: Degradation of BTK protein in Namalwa cells (Western blot; DC50, Dmax)
Chain of BTK (Q06187 whole entry): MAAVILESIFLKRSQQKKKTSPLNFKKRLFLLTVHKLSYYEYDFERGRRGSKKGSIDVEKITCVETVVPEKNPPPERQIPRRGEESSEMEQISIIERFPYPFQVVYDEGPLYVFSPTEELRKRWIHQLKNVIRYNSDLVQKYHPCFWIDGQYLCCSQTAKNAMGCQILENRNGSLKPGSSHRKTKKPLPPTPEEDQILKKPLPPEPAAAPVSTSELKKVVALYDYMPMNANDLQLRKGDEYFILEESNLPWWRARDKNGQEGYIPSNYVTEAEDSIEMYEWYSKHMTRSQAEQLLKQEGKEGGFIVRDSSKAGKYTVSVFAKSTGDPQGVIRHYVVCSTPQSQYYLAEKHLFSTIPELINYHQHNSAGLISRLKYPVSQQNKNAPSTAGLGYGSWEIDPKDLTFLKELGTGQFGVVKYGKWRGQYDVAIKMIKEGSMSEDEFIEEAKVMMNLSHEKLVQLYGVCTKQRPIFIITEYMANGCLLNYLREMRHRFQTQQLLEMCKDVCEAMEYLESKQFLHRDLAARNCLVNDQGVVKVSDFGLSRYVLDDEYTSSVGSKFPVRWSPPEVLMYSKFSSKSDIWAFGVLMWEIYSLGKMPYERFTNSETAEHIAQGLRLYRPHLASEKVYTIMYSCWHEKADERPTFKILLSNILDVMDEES

JeKo-1 cells = test: Antiproliferative effect, MTS cell viability assay, JeKo-1 cells; type: cell-based; conditions: JeKo-1 mantle cell lymphoma cells, read-out: IC50 (anti-proliferation) JeKO-1 cells
Procedure, shortened: as §1

[1] = read-out: DC50 (BTK degradation), concentration giving 50% reduction of BTK expression level, cell line not given
[2] = read-out: Dmax (BTK degradation)
[3] = BTK degradation, cell line not given

Compound | DC50 (BTK; [1]) [nM] | Dmax (BTK; [2]) [%] | Dmax (BTK) [%] | DC50 (BTK; [3]) [nM] | Dmax (BTK degradation) (BTK; cell line not given) | degradation of BTK protein (BTK; Namalwa B lymphocyte cells, various concentrations, 24 hours, Western blot) | IC50 (Mino cells; Homo sapiens, MINO) [nM] | IC50 (JeKo-1 cells; Homo sapiens) [nM] | IC50 (Mino cells) [nM] | IC50 (JeKo-1 cells) [nM]
Nc1ncnc2c1c(-c1ccc(Oc3ccccc3)cc1)nn2C1CCN(CC2CCN(CCCN3CCC(c4ccc5c(c4)C(=O)N(C4CCC(=O)NC4=O)C5=O)CC3)CC2)CC1 (stereo not drawn) [Compound 209, 5-(1-(3-(4-((4-(4-amino-3-(4-phenoxyphenyl)-1H-pyrazolo[3,4-d]pyrimidin-1-yl)piperidin-1-yl)methyl)piperidin-1-yl)propyl)piperidin-4-yl)-2-(2,6-dioxopiperidin-3-yl)isoindoline-1,3-dione] |  |  | > 75 | 10 to 50 |  |  | > 10000 | > 10000 |  | 
Nc1ncnc2c1c(-c1ccc(Oc3ccccc3)cc1)nn2C1CCN(C2CCN(C(=O)N3CCN(CCCN4CCC(c5ccc6c(c5)CN(C5CCC(=O)NC5=O)C6=O)CC4)CC3)CC2)CC1 (stereo not drawn) [Compound 262, 3-(5-(1-(3-(4-(4-(4-amino-3-(4-phenoxyphenyl)-1H-pyrazolo[3,4-d]pyrimidin-1-yl)-[1,4′-bipiperidine]-1′-carbonyl)piperazin-1-yl)propyl)piperidin-4-yl)-1-oxoisoindolin-2-yl)piperidine-2,6-dione] |  |  | > 75 | > 50 |  |  | > 10000 | 1000 to 10000 |  | 
(7S)-7-(1-((1-(4-(2-(2,6- dioxopiperidin-3-yl)-1,3- dioxoisoindolin-5-yl)piperazine-1- carbonyl)piperidin-1- yl)methyl)piperidin-4-yl)-2-(4- phenoxyphenyl)-4,5,6,7- tetrahydropyrazolo[1,5-a]pyrimidine- 3-carboxamide [Compound 397] | > 50 |  |  |  | B (B >75%) |  |  |  | > 10000 | 1000 to 10000
Nc1ncnc2c1c(-c1ccc(Oc3ccccc3)cc1)nn2C1CCN(CC2CCN(CC3CCN(c4ccc5c(c4)oc(=O)n5C4CCC(=O)NC4=O)CC3)C2)CC1 (stereo not drawn) [Compound 541, 3-(6-(4-((3-((4-(4-amino-3-(4-phenoxyphenyl)-1H-pyrazolo[3,4-d]pyrimidin-1-yl)piperidin-1-yl)methyl)pyrrolidin-1-yl)methyl)piperidin-1-yl)-2-oxobenzo[d]oxazol-3(2H)-yl)piperidine-2,6-dione] | 10 to 50 | > 75 |  |  |  |  | 1000 to 10000 | 1000 to 10000 |  | 
Nc1ncnc2c1c(-c1ccc(Oc3ccccc3)cc1)nn2C1CCN(C2CCN(C(=O)N3CCC(CC4CCN(c5ccc6c(c5)CN(C5CCC(=O)NC5=O)C6=O)CC4)CC3)CC2)CC1 (stereo not drawn) [Compound 238, 3-(5-(4-((1-(4-(4-amino-3-(4-phenoxyphenyl)-1H-pyrazolo[3,4-d]pyrimidin-1-yl)-[1,4′-bipiperidine]-1′-carbonyl)piperidin-4-yl)methyl)piperidin-1-yl)-1-oxoisoindolin-2-yl)piperidine-2,6-dione] |  |  | > 90 | < 10 |  |  | < 1000 | 1000 to 10000 |  | 
Nc1ncnc2c1c(-c1ccc(Oc3ccccc3)cc1)nn2C1CCN(C2CCN(CC3CN(c4ccc5c(c4)C(=O)N(C4CCC(=O)NC4=O)C5=O)C3)CC2)CC1 (stereo not drawn) [Compound 433, 5-(3-((4-(4-amino-3-(4-phenoxyphenyl)-1H-pyrazolo(3,4-d)pyrimidin-1-yl)-(1,4′-bipiperidin)-1′-yl)methyl)azetidin-1-yl)-2-(2,6-dioxopiperidin-3-yl)isoindoline-1,3-dione] | > 50 | > 90 |  |  |  | dose-dependent degradation | < 1000 | 1000 to 10000 |  | 
NC(=O)c1c(-c2ccc(Oc3ccccc3)cc2)nn2c1NCC[C@H]2C1CCN(C2CCN(CCC3CCN(c4ccc5c(c4)C(=O)N(C4CCC(=O)NC4=O)C5=O)CC3)CC2)CC1 (stereo partly drawn) [Compound 325] |  |  | > 90 | 10 to 50 |  |  | 1000 to 10000 | 1000 to 10000 |  | 
NC(=O)c1c(-c2ccc(Oc3ccccc3)cc2)nn2c1NCCC2C1CCN(CC2CCN(C(=O)N3CCC(CC4CCN(c5ccc6c(c5)CN(C5CCC(=O)NC5=O)C6=O)CC4)CC3)CC2)CC1 (stereo not drawn) [Compound 374, 7-(1-((1-(4-((1-(2-(2,6-dioxopiperidin-3-yl)-1-oxoisoindolin-5-yl)piperidin-4-yl)methyl)piperidine-1-carbonyl)piperidin-4-yl)methyl)piperidin-4-yl)-2-(4-phenoxyphenyl)-4,5,6,7-tetrahydropyrazolo[1,5-a]pyrimidine-3-carboxamide] |  |  | > 75 | 10 to 50 |  |  | 1000 to 10000 | > 10000 |  | 

Second part, led by results:

DC50 (BTK; [1]) [nM] | Dmax (BTK; [2]) [%] | Dmax (BTK) [%] | DC50 (BTK; [3]) [nM] | Dmax (BTK degradation) (BTK; cell line not given) | degradation of BTK protein (BTK; Namalwa B lymphocyte cells, various concentrations, 24 hours, Western blot) | Compound | IC50 (Mino cells; Homo sapiens, MINO) [nM] | IC50 (JeKo-1 cells; Homo sapiens) [nM] | IC50 (Mino cells) [nM] | IC50 (JeKo-1 cells) [nM]
10 to 50 | > 75 |  |  |  |  | Nc1ncnc2c1c(-c1ccc(Oc3ccccc3)cc1)nn2[C@@H]1CCCN(CCNC(=O)C2CCN(c3ccc4c(c3)C(=O)N(C3CCC(=O)NC3=O)C4=O)CC2)C1 (stereo partly drawn) [Compound 527, N-(2-((R)-3-(4-amino-3-(4-phenoxyphenyl)-1H-pyrazolo[3,4-d]pyrimidin-1-yl)piperidin-1-yl)ethyl)-1-(2-(2,6-dioxopiperidin-3-yl)-1,3-dioxoisoindolin-5-yl)piperidine-4-carboxamide] | < 1000 | 1000 to 10000 |  | 
< 10 | > 90 |  |  |  |  | Nc1ncnc2c1c(-c1ccc(Oc3ccccc3)cc1)nn2C1CCN(CCCN2CCC(CN3CCN(c4ccc(NC5CCC(=O)NC5=O)cc4)CC3)CC2)CC1 (stereo not drawn) [Compound 560, 3-((4-(4-((1-(3-(4-(4-amino-3-(4-phenoxyphenyl)-1H-pyrazolo[3,4-d]pyrimidin-1-yl)piperidin-1-yl)propyl)piperidin-4-yl)methyl)piperazin-1-yl)phenyl)amino)piperidine-2,6-dione] | < 1000 | < 1000 |  | 
< 10 | > 90 |  |  |  |  | Nc1ncnc2c1c(-c1ccc(Oc3ccccc3)cc1)nn2C1CCC(C(=O)NCCN2CCN(c3ccc4c(c3)CN(C3CCC(=O)NC3=O)C4=O)CC2)CC1 (stereo not drawn) [Compound 523, 4-(4-amino-3-(4-phenoxyphenyl)-1H-pyrazolo[3,4-d]pyrimidin-1-yl)-N-(2-(4-(2-(2,6-dioxopiperidin-3-yl)-1-oxoisoindolin-5-yl)piperazin-1-yl)ethyl)cyclohexane-1-carboxamide] | < 1000 | < 1000 |  | 
 |  | > 75 | 10 to 50 |  |  | NC(=O)c1c(-c2ccc(Oc3ccccc3)cc2)nn2c1NCC[C@H]2C1CCN(C(=O)N2CCN(CCC3CCN(c4ccc5c(c4)C(=O)N(C4CCC(=O)NC4=O)C5=O)CC3)CC2)CC1 (stereo partly drawn) [Compound 299, (7S)-7-(1-(4-(2-(1-(2-(2,6-dioxopiperidin-3-yl)-1,3-dioxoisoindolin-5-yl)piperidin-4-yl)ethyl)piperazine-1-carbonyl)piperidin-4-yl)-2-(4-phenoxyphenyl)-4,5,6,7-tetrahydropyrazolo[1,5-a]pyrimidine-3-carboxamide] | 1000 to 10000 | 1000 to 10000 |  | 
10 to 50 | > 90 |  |  |  |  | Nc1ncnc2c1c(-c1ccc(Oc3ccccc3)cc1)nn2C1CCN(C2CCN(CC3CN(CC4CN(c5ccc6c(c5)CN(C5CCC(=O)NC5=O)C6=O)C4)C3)CC2)CC1 (stereo not drawn) [Compound 438, 3-(5-(3-((3-((4-(4-amino-3-(4-phenoxyphenyl)-1H-pyrazolo[3,4-d]pyrimidin-1-yl)-[1,4′-bipiperidin]-1′-yl)methyl)azetidin-1-yl)methyl)azetidin-1-yl)-1-oxoisoindolin-2-yl)piperidin-2,6-dione] | 1000 to 10000 | 1000 to 10000 |  | 
10 to 50 | > 90 |  |  |  |  | Nc1ncnc2c1c(-c1ccc(Oc3ccccc3)cc1)nn2C1CCN(C(=O)NCCN2CCN(c3ccc4c(c3)C(=O)N(C3CCC(=O)NC3=O)C4=O)CC2)CC1 (stereo not drawn) [Compound 520, 4-(4-amino-3-(4-phenoxyphenyl)-1H-pyrazolo[3,4-d]pyrimidin-1-yl)-N-(2-(4-(2-(2,6-dioxopiperidin-3-yl)-1,3-dioxoisoindolin-5-yl)piperazin-1-yl)ethyl)piperidine-1-carboxamide] | < 1000 | < 1000 |  | 
> 50 | > 50 |  |  |  |  | Nc1ncnc2c1c(-c1ccc(Oc3ccccc3)cc1)nn2C1CCN(CCCC#Cc2ccc(N3CCC(=O)NC3=O)cc2)CC1 [Compound 538, 1-(4-(5-(4-(4-amino-3-(4-phenoxyphenyl)-1H-pyrazolo[3,4-d]pyrimidin-1-yl)piperidin-1-yl)pent-1-yn-1-yl)phenyl)dihydropyrimidine-2,4(1H,3H)-dione] | > 10000 | > 10000 |  | 
 |  | > 90 | < 10 |  |  | NC(=O)c1c(-c2ccc(Oc3ccccc3)cc2)nn2c1NCCC2C1CCN(C2CCN(C(=O)N3CCN(C4CCN(c5ccc6c(c5)CN(C5CCC(=O)NC5=O)C6=O)CC4)CC3)CC2)CC1 (stereo not drawn) [Compound 346, 7-(1′-(4-(1-(2-(2,6-dioxopiperidin-3-yl)-1-oxoisoindolin-5-yl)piperidin-4-yl)piperazine-1-carbonyl)-[1,4′-bipiperidin]-4-yl)-2-(4-phenoxyphenyl)-4,5,6,7-tetrahydropyrazolo[1,5-a]pyrimidine-3-carboxamide] | < 1000 | 1000 to 10000 |  | 
< 10 | > 90 |  |  |  |  | Nc1ncnc2c1c(-c1ccc(Oc3ccccc3)cc1)nn2C1CCC(C(=O)NCCN2CCN(c3ccc4c(c3)C(=O)N(C3CCC(=O)NC3=O)C4=O)CC2)CC1 (stereo not drawn) [Compound 522, 4-(4-amino-3-(4-phenoxyphenyl)-1H-pyrazolo[3,4-d]pyrimidin-1-yl)-N-(2-(4-(2-(2,6-dioxopiperidin-3-yl)-1,3-dioxoisoindolin-5-yl)piperazin-1-yl)ethyl)cyclohexane-1-carboxamide] | < 1000 | < 1000 |  | 
